Legend:
Assay type in all cases: ADME
[1] = target: T1, Glutathione S-transferase Mu 1 (Homo sapiens, UniProt P09488); experiment: Substrates for human cytosolic glutathione transferase GSTM1
T1 sequence (P09488 whole entry): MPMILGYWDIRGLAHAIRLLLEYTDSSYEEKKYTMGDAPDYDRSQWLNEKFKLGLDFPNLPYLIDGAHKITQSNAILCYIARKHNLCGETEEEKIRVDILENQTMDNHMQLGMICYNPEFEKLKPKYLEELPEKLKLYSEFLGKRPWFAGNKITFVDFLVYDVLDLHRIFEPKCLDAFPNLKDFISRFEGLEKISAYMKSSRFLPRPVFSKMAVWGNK

[2] = target: T2, Glutathione S-transferase Mu 2 (Homo sapiens, UniProt P28161); experiment: Substrates for human cytosolic glutathione transferase GSTM2
T2 sequence (P28161 whole entry): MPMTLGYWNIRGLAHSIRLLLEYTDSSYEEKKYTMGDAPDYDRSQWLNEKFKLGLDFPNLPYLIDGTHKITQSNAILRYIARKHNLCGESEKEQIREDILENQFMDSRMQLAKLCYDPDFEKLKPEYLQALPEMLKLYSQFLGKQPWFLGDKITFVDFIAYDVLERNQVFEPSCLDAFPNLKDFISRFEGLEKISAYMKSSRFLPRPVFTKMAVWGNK

[3] = target: Glutathione S-transferase P (Homo sapiens, UniProt P09211); experiment: Substrates for human cytosolic glutathione transferase GSTP1
[4] = target: T3, UDP-glucuronosyltransferase 2B15 (Homo sapiens, UniProt P54855); experiment: Substrate of human UDP-glucuronosyltransferase UGT2B15
T3 sequence (P54855 whole entry): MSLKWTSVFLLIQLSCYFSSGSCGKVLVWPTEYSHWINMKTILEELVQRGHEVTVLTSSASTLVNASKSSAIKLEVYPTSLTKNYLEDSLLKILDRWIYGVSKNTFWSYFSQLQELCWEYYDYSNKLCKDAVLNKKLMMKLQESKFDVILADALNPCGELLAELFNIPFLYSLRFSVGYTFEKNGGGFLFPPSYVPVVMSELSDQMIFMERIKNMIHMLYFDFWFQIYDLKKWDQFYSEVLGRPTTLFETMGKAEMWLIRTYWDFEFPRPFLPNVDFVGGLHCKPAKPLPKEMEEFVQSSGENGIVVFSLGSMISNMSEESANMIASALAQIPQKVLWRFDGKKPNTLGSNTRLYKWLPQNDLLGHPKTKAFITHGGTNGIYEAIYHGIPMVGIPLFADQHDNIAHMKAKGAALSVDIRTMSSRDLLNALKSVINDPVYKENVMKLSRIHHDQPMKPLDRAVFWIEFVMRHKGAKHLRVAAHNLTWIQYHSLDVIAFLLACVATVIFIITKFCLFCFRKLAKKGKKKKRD

Cytochrome P450 2C9 [5] = target: T4, Cytochrome P450 2C9 (Homo sapiens, UniProt P11712); experiment: Clinically relevant substrates of human liver microsomal P450 enzymes, isoform CYP2C9; settings: microsomes
[6] = target: T5, Glutathione S-transferase theta-1 (Homo sapiens, UniProt P30711); experiment: Substrates for human cytosolic glutathione transferase GSTT1
T5 sequence (P30711 whole entry): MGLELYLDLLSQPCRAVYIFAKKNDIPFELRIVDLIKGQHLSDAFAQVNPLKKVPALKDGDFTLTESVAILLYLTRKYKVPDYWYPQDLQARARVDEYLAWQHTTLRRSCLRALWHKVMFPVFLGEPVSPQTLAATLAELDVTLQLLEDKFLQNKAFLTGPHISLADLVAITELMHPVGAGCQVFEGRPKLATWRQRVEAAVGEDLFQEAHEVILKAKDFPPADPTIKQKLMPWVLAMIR

[7] = target: T6, Glutathione S-transferase A1 (Homo sapiens, UniProt P08263); experiment: Substrates for human cytosolic glutathione transferase GSTA1
T6 sequence (P08263 whole entry): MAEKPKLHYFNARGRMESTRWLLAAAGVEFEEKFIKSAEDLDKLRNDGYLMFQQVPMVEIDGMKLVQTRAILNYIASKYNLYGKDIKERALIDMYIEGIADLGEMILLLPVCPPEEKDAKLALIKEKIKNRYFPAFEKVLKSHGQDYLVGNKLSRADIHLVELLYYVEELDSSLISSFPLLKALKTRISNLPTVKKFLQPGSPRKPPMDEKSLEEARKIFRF

[8] = target: T7, UDP-glucuronosyltransferase 2B7 (Homo sapiens, UniProt P16662); experiment: Substrate of human UDP-glucuronosyltransferase UGT2B7
T7 sequence (P16662 whole entry): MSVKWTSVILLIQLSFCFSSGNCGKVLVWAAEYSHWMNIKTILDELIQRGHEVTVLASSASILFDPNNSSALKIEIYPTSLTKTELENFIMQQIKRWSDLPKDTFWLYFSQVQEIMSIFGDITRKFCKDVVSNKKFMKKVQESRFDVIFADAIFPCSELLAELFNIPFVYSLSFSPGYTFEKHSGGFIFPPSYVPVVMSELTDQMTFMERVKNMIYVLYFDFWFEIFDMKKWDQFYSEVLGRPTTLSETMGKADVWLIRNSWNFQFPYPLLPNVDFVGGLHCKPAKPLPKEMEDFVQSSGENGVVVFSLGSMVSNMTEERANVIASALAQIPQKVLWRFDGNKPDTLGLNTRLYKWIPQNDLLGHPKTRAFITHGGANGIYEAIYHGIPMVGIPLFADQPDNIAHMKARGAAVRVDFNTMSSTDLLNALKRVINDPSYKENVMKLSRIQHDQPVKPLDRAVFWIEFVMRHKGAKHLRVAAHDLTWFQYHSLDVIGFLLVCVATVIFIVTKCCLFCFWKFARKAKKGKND

[9] = target: T8, UDP-glucuronosyltransferase 1A9 (Homo sapiens, UniProt O60656); experiment: Substrate of human UDP-glucuronosyltransferase UGT1A9
T8 sequence (O60656 whole entry): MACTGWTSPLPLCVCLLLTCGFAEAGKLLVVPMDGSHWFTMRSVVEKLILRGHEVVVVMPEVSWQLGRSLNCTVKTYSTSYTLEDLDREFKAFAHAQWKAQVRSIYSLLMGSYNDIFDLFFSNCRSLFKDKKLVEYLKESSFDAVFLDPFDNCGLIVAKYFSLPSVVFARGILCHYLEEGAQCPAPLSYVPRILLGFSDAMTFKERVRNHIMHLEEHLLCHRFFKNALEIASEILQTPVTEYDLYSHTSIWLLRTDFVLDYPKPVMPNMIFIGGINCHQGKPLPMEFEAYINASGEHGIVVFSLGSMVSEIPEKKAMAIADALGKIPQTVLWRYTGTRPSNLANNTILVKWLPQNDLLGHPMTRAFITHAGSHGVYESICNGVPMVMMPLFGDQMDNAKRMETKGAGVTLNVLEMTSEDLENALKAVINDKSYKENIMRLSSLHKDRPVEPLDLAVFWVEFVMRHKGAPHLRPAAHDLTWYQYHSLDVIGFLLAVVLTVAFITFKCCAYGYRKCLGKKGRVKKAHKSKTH

[10] = target: T9, UDP-glucuronosyltransferase 1A6 (Homo sapiens, UniProt P19224); experiment: Substrate of human UDP-glucuronosyltransferase UGT1A6
T9 sequence (P19224 whole entry): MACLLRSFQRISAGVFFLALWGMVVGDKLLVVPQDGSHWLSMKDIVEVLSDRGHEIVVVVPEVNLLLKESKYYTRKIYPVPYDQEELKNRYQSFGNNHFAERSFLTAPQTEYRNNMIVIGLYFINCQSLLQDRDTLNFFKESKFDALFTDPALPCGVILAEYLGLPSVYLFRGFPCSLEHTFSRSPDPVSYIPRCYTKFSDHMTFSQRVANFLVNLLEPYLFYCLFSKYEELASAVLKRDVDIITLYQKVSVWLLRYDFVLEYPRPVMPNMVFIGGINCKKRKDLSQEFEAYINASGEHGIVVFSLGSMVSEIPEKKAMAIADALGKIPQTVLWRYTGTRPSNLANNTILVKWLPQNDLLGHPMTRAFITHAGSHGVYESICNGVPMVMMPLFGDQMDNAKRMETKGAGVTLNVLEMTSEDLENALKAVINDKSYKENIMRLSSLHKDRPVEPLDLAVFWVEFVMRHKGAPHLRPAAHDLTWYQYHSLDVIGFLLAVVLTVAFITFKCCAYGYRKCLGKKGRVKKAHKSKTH

[11] = target: T10, UDP-glucuronosyltransferase 1A8 (Homo sapiens, UniProt Q9HAW9); experiment: Substrate of human UDP-glucuronosyltransferase UGT1A8
T10 sequence (Q9HAW9 whole entry): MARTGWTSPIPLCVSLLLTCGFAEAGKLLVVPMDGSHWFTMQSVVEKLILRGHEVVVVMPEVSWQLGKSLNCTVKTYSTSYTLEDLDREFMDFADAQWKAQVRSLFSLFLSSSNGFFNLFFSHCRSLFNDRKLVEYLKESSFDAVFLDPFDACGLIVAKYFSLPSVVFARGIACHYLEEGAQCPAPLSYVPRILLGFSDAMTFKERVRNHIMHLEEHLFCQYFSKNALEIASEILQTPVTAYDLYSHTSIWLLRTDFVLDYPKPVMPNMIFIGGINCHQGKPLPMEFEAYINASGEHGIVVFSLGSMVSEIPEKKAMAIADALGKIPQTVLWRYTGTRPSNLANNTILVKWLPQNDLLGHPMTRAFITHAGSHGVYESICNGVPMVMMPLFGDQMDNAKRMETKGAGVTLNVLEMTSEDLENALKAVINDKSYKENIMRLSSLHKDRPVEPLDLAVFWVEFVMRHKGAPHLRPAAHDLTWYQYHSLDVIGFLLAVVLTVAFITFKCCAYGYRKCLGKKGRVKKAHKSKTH

Cytochrome P450 2C19 = Cytochrome P450 2C19 (Homo sapiens, UniProt P33261); experiment: Clinically relevant substrates of human liver microsomal P450 enzymes, isoform CYP2C19; settings: microsomes
Cytochrome P450 2C9 [12] = target: T4, Cytochrome P450 2C9; experiment: Clinically relevant inhibitors of human liver microsomal P450 enzymes, isoform CYP2C9; settings: microsomes
Cytochrome P450 1A2 = target: T11, Cytochrome P450 1A2 (Homo sapiens, UniProt P05177); experiment: Clinically relevant inhibitors of human liver microsomal P450 enzymes, isoform CYP1A2; settings: microsomes
T11 sequence (P05177 whole entry): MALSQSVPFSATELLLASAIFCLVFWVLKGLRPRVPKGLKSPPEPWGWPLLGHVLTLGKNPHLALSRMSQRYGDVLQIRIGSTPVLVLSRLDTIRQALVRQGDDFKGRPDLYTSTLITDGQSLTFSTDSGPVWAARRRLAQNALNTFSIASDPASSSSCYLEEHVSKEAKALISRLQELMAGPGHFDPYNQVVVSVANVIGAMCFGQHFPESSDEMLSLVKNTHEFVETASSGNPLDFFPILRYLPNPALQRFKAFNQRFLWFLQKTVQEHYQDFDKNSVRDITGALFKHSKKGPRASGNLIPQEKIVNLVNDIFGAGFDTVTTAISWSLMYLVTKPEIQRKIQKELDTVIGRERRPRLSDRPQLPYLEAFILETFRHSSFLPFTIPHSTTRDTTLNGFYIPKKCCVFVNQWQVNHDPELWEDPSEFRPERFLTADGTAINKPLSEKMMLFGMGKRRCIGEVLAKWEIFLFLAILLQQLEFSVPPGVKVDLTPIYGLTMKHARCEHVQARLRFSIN

Cytochrome P450 2D6 = Cytochrome P450 2D6 (Homo sapiens, UniProt P10635); experiment: Clinically relevant inhibitors of human liver microsomal P450 enzymes, isoform CYP2D6; settings: microsomes
Cytochrome P450 2D6, sequence (P10635 whole entry, canonical isoform): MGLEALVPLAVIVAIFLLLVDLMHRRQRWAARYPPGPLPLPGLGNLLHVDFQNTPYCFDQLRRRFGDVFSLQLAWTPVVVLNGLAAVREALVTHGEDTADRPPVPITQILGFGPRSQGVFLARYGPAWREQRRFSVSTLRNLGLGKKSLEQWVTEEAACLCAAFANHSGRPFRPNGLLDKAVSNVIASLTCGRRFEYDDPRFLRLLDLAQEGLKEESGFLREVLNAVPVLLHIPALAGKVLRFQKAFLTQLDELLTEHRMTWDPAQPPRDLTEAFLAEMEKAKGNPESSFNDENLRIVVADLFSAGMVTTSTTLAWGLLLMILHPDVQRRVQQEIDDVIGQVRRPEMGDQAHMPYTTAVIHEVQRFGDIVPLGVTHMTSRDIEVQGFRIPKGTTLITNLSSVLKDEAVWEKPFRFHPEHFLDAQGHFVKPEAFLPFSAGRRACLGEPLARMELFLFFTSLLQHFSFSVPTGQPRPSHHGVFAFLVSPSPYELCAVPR

Cytochrome P450 2C19, sequence (P33261 whole entry, canonical isoform): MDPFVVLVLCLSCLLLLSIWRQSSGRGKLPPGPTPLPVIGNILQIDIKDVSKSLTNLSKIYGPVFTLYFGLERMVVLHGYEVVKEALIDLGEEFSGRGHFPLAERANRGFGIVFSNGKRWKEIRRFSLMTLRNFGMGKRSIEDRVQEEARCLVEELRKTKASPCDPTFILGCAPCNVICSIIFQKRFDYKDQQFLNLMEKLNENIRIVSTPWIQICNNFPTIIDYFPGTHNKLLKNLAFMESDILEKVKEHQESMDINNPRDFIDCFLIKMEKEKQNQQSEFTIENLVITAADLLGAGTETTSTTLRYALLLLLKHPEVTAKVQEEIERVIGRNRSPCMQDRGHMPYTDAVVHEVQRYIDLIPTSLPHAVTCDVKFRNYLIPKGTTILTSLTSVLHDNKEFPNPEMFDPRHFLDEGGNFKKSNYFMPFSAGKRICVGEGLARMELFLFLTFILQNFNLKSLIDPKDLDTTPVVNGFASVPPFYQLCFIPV
T4 sequence (P11712 whole entry, canonical isoform): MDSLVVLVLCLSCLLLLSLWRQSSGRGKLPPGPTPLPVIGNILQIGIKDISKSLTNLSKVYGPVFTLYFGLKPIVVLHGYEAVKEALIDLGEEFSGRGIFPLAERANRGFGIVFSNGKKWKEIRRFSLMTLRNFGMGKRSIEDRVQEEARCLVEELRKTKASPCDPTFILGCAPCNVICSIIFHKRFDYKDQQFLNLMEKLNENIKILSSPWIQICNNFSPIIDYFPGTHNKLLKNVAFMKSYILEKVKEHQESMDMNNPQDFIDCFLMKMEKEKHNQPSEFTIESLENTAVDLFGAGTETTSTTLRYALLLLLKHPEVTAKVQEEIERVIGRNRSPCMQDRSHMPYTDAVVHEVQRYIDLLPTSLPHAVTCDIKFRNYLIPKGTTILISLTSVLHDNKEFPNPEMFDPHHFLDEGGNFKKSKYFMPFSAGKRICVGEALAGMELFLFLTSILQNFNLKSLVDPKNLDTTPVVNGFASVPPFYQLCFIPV
Glutathione S-transferase P, sequence (P09211 whole entry): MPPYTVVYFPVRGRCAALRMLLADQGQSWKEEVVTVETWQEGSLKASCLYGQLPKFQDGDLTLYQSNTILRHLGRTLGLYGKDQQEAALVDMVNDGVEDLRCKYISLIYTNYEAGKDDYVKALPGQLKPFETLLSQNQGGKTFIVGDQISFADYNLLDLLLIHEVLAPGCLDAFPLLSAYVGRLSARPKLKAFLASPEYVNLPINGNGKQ

c1ccc(C2CO2)cc1 (centres undefined)
Activity [1]: Substrate

O=[N+]([O-])c1ccc(Cl)c(Cl)c1
Activity [2]: Substrate

OC1c2ccc3c(ccc4ccccc43)c2C2OC2C1O (centres undefined)
Activity [3]: Substrate | Activity [1]: Substrate

NC(CC1=CC(=O)C(=O)C=C1)C(=O)O (centres undefined)
Activity [2]: Substrate

CCC(=C(c1ccc(O)cc1)c1ccc(OCCN(C)C)cc1)c1ccccc1
Activity [4]: Substrate

CC(=O)C[C@@H](c1ccccc1)c1c(O)c2ccccc2oc1=O
Activity (Cytochrome P450 2C9 [5]): Substrate

O=[N+]([O-])c1ccc(OCC2CO2)cc1 (centres undefined)
Activity [6]: Substrate

c1ccc([C@H]2O[C@@H]2c2ccccc2)cc1 (relative stereo)
Activity [1]: Substrate

O=C1C=C2CCNC2=CC1=O [AMINOCHROME]
Activity [2]: Substrate

OC1c2cc3ccc4cccc5ccc(c2C2OC2C1O)c3c45 (centres undefined) [BENZO[A]PYRENE DIOL EPOXIDE]
Activity [7]: Substrate | Activity [3]: Substrate | Activity [1]: Substrate

C=CC1CO1 (centres undefined) [BUTADIENE EPOXIDE]
Activity [6]: Substrate

OC1c2c(ccc3cc4c(ccc5ccccc54)cc23)C2OC2C1O (centres undefined) [DIBENZ[A,H]ANTHRACENE DIOL EPOXIDE]
Activity [7]: Substrate | Activity [1]: Substrate

O=C(O)Cc1ccccc1Nc1c(Cl)cccc1Cl [DICLOFENAC]
Activity [4]: Substrate | Activity [8]: Substrate | Activity [9]: Substrate | Activity (Cytochrome P450 2C9 [5]): Substrate | Activity [10]: Substrate

CCN(CC)C(=O)/C(C#N)=C/c1cc(O)c(O)c([N+](=O)[O-])c1 [ENTACAPONE]
Activity [4]: Substrate | Activity [11]: Substrate | Activity [9]: Substrate

CNCCC(Oc1ccc(C(F)(F)F)cc1)c1ccccc1 (centres undefined) [FLUOXETINE]
Activity (Cytochrome P450 2C19): Substrate | Activity (Cytochrome P450 2C9 [12]): Inhibitor | Activity (Cytochrome P450 2C9 [5]): Substrate

CC(C(=O)O)c1ccc(-c2ccccc2)c(F)c1 (centres undefined) [FLURBIPROFEN]
Activity (Cytochrome P450 2C9 [5]): Substrate

COCCCC/C(=N\OCCN)c1ccc(C(F)(F)F)cc1 [FLUVOXAMINE]
Activity (Cytochrome P450 1A2): Inhibitor | Activity (Cytochrome P450 2C9 [12]): Inhibitor

ClCCl [METHYLENE CHLORIDE]
Activity [6]: Substrate

Cc1cccc(C)c1OCC(C)N (centres undefined) [MEXILETINE]
Activity (Cytochrome P450 1A2): Inhibitor

COCC(=O)O[C@]1(CCN(C)CCCc2nc3ccccc3[nH]2)CCc2cc(F)ccc2[C@@H]1C(C)C [MIBEFRADIL]
Activity (Cytochrome P450 2D6): Inhibitor

O=C(NCCN1CCOCC1)c1ccc(Cl)cc1 [MOCLOBEMIDE]
Activity (Cytochrome P450 2C19): Substrate

CCn1cc(C(=O)O)c(=O)c2cc(F)c(N3CCNCC3)cc21 [NORFLOXACIN]
Activity (Cytochrome P450 1A2): Inhibitor

C1CO1 [OXIRANE]
Activity [6]: Substrate

COc1ccnc(C[S+]([O-])c2nc3ccc(OC(F)F)cc3[nH]2)c1OC (centres undefined) [PANTOPRAZOLE]
Activity (Cytochrome P450 2C19): Substrate

Cc1ccc(C(=O)c2cc(O)c(O)c([N+](=O)[O-])c2)cc1 [TOLCAPONE]
Activity [4]: Substrate

CC(c1cc2ccccc2s1)N(O)C(N)=O (centres undefined) [ZILEUTON]
Activity (Cytochrome P450 1A2): Inhibitor
